Source: PMC10072326, “Promising anticancer agents based on 8-hydroxyquinoline hydrazone copper(II) complexes” (Frontiers in Chemistry, 2023)
Converted amounts (≈) assume the structure as drawn.

Key:
[1] = molecular target: bovine serum albumin (BSA) (Bos taurus, UniProt P02769); assay: BSA fluorescence quenching; format: binding; set-up: Affinity constant K ± SD: unit not given here; details: fluorescence quenching; HypSpec2014; 1:1 species assumed
Procedure: To evaluate the interaction of the compounds, both organic and Cu(II) complexes, with bovine serum albumin (BSA) fluorescence spectra were measured. In a typical fluorescence experiment, to a solution of 1.5 μM of BSA in the same buffer, successive aliquots of a stock solution of each compound in DMSO were added directly to the cuvette (optical path 1.0 cm). The fluorescence emission was recorded between 310 and 600 nm with excitation at 295 nm. The final DMSO % was kept below 2% (v/v). The Stern-Volmer plots were built using the emission at 340 nm and blank samples (in the absence of BSA) with the same concentration of the complexes were recorded and subsequently subtracted from the corresponding emission spectra containing the fluorophore. Moreover, the fluorescence emission intensity was corrected for reabsorption and inner filter effects using UV-Vis absorption data recorded for each sample, since all complexes absorb in the measured wavelength range (19, 20).
The interaction of the organic compounds and Cu(II) complexes with BSA was monitored by studying the quenching of albumin’s fluorescence emission with increasing concentrations of the complexes (25). Overall, the intensity of the Trp emission decreases with the addition of the complexes, except for 8 (see Figs. S19). The Stern-Volmer relationship was used to analyse the fluorescence quenching process:
where I0 and I are the fluorescence intensities in the absence and in the presence of quencher, kq is the bimolecular quenching rate, τ0 is the fluorophore lifetime in the absence of the quencher (6.22 ns) (26) and [Q] is the quencher concentration. […] This linear relationship is obeyed for all complexes except 5, where a downward curvature is observed. This can be an indication of two distinct binding sites, corresponding to two populations of fluorophores, one being accessible and other inaccessible or buried inside the protein. In such cases, the Stern-Volmer relation can be modified to (27):
where ΔI = I0 – I, Ka is the Stern-Volmer constant for the accessible fraction and fa is the fraction of accessible fluorophore. […] As first approximation, the total concentration of quencher was used to check the quenching mechanism. […] As all systems presented high absorbance values in the measured range of wavelengths, no excess of quencher was used and, therefore, 1:1 species will be assumed for these interactions.

A-549 cells = assay: Sulforhodamine B (SRB) cell viability assay; format: cell-based; details: Homo sapiens, A549, 72 h
Procedure: (§1) Copper compounds were tested, along with the free ligands and cisplatin as the positive control, for their cytotoxicity on both melanoma (A-375) and lung adenocarcinoma (A-549) cell lines in the concentration range 0.78–50 μM. Following 72 h of incubation, cell viability was measured via sulforhodamine B (SRB) assay (Supplementary Figure S25).
(§2) A-375 cells (ATCC, CRL-3222) were grown in Dulbecco’s Modified Eagle Medium with high glucose (Gibco #11965118) and A-549 (ATCC, CCL-185) cells were grown in Dulbecco’s Modified Eagle Medium F-12 (Gibco #11320033), supplemented with 10% FBS (Gibco, #10500064) and Penicillin-Streptomycin (10,000 U/mL, Gibco, #15140122). Cells were incubated at 37 °C, 5% CO2 incubator and subcultured every 3 days.
(§3) All the tested complexes were dissolved in DMSO (10 mM stock solution), and aliquots were stored at -20 °C, thawed on the experiment day and used only once. For SRB cell viability assay, A-375 and A-549 cells were seeded on 96-well plates (4×10^3 cells/well) and treated with serial dilutions of indicated compounds (with a concentration range of 0-50 μM, 72 h). Trichloroacetic acid (TCA) was added to wells for fixation at a final concentration of 10%, for 1 h at 4 °C. Each well was washed five times with ddH2O, dried, and incubated with 0.4% (w/v) SRB dye (50 µL/well) for 30 min at room temperature. The wells were washed with 1% acetic acid (v/v) five times, and 150 µL of 10 mM Tris solution was added to dissolve the stain. Colorimetric measurements were taken at λ = 564 nm. Viability percentage was calculated as follows: % Cell Viability = [100 × (sample Abs.-blank) / (non-treated control Abs.-blank)].

A-375 cells = assay: Sulforhodamine B (SRB) cell viability assay; format: cell-based; details: Homo sapiens, 72 h
Procedure: as §1, §2, §3

[2] = Cu(II) complex formation and stability constants by UV-Vis spectrophotometric titrations; format: physicochemical; details: for pCu (= −log[Cu(II)]): pH 7.4, c Cu(II) = 1 μM, computed from stability constants
Procedure: The complex formation processes of L^1, L^5 and L^6 with Cu(II) ions were studied by UV-Vis spectrophotometry in 30% (v/v) DMSO/H2O using relatively low concentrations (c L = 50–60 μM), due to the limited water solubility of the ligand precursors as well as of the Cu(II) complexes (see thermodynamic solubility data in aqueous media in Table 2 and Table 3). L^1 was selected as the simplest compound of the studied ligand series, whereas L^5 and L^6 were selected to compare with the oxidovanadium(IV) system ([Ribeiro et al., 2022]). The solution stability and stoichiometry of the Cu(II) complexes were determined by the evaluation of the UV-Vis spectra recorded at various pH values (representative spectra are shown for the Cu(II) ‒ L^1 and Cu(II) ‒ L^6 systems in Figures 3A,B and for Cu(II) ‒ L^5 in Supplementary Figure S10A). The computed overall stability constants and pK a values of the complexes are collected in Table 3. The formation of only mono-ligand complexes was found with [Cu(LH)]^+, [Cu(L)], and [Cu(LH‒1)]^‒ (and [Cu(LH‒2)]^2‒ in the case of L^6) compositions, and their computed molar absorbance spectra are shown in Figures 3C, D, Supplementary Figure S10B.
An Agilent Cary 8454 diode array spectrophotometer was used to record the UV-Vis spectra in the range of 200–800 nm. Titrations were carried out with a Metrohm 665 Dosimat burette and an Orion 710A pH-meter equipped with a Metrohm combined electrode. A ionic strength of 0.10 M (KCl) was used to keep the activity coefficients constant. The titrations were performed with 0.10 M carbonate-free KOH solution in a 30% (v/v) DMSO/H2O solvent mixture. […] The average water ionization constant (pKw) is 14.53 ± 0.05 in the 30% (v/v) DMSO/H2O solvent mixture. The pKa values of the ligand precursors and the logβ values for the Cu(II) complexes were determined in 30% (v/v) DMSO/H2O in the same way as it was done in our previous publications (9, 11).
Spectrophotometric titrations were carried out on samples containing the ligands at 50 μM concentration, in the pH range from 2.0 to 11.5 in the absence or the presence of 1, 0.5 or 0.25 equiv. Cu(II) ions, using 10 cm^3 sample volumes. Proton dissociation constants (pKa) of the ligand precursors as well as stoichiometry and stability constants of the Cu(II) complexes (β) were calculated by the computer program PSEQUAD (12). The usual definition of overall (β) and stepwise (K) formation constants is used: […]

[3] = set-up: method as in Ribeiro et al., 2022; details: ligand precursors; pH 7.4; ref Ribeiro et al., 2022; cited from earlier work
[4] = set-up: method as in Ribeiro et al., 2022; details: 30% (v/v) DMSO/H2O; t = 25.0°C; I = 0.1 M (KCl); ref Ribeiro et al., 2022; cited from earlier work
[5] = Cu(II) complex of the ligand, 30% (v/v) DMSO/H2O, t = 25.0°C, I = 0.10 M (KCl)
[6] = proton dissociation of the Cu(II) complex, 30% (v/v) DMSO/H2O

Chain of bovine serum albumin (BSA) (P02769 25-607): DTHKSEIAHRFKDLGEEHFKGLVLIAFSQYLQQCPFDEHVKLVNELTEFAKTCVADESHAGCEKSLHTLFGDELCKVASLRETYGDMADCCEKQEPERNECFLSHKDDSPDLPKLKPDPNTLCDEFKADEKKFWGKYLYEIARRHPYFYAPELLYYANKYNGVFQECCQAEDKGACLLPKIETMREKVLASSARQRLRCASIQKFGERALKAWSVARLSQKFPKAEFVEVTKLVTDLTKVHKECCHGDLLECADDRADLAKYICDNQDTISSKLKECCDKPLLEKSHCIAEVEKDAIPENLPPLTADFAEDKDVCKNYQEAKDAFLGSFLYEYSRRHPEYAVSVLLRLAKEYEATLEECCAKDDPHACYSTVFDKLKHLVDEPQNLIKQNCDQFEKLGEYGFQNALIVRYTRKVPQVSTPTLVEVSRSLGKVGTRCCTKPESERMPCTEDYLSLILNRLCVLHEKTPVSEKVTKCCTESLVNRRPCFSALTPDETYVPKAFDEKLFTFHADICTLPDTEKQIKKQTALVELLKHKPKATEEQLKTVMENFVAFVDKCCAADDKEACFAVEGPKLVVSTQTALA

## O=C(N/N=C/c1ccc2cccc(O)c2n1)c1ccccc1 [L^1]
[1]
  Affinity constant K ± SD: (4.6 ± 0.2) × 10^5
A-549 cells
  IC50: > 50 µM
A-375 cells
  IC50: 12.3 ± 0.5 µM
[2]; [5]
  logβ [Cu(L)]: 17.79 ± 0.02
  logβ [Cu(LH)]^+: 23.41 ± 0.02
  logβ [Cu(LH‒1)]^‒: 7.39 ± 0.03
[2]; c L = 1 μM
  pCu (= −log[Cu(II)]): 8.96
[2]; c L = 10 μM
  pCu (= −log[Cu(II)]): 12.59
[2]; [6]
  pK a [Cu(L)]: 10.40
  pK a [Cu(LH)]^+: 5.62
[3]
  thermodynamic solubility S 7.4: 3.7 µM (≈ 1.08 µg/mL)
[4]
  pK a1: 2.24
  pK a2: 9.51
  pK a3: 11.45
